Assay results reported in patent US12448368B2, “Indole compounds as androgen receptor modulators” (NIDO BIOSCIENCES, INC., priority 2020, dated 2025).
pIC50: −log10 of the molar value.

These molecules were tested against T1, androgen receptor (AR) (Homo sapiens, UniProt P10275, T878A) (assay: AR reporter assay in LNCaP cells expressing ARR2PB-FireflyLuc and CMV-RenillaLuc, antagonist mode (% remaining activity, IC50)). Conditions: 48 h at 37° C., class symbols A-D, read-out: IC50.
T1 construct: LNCaP cells expressing ARR2PB-FireflyLuc and CMV-RenillaLuc; endogenous in cells; host or cells: LNCaP cells carrying ARR2PB-FireflyLuc and CMV-RenillaLuc reporters
T1 sequence (P10275 1-920 T878A): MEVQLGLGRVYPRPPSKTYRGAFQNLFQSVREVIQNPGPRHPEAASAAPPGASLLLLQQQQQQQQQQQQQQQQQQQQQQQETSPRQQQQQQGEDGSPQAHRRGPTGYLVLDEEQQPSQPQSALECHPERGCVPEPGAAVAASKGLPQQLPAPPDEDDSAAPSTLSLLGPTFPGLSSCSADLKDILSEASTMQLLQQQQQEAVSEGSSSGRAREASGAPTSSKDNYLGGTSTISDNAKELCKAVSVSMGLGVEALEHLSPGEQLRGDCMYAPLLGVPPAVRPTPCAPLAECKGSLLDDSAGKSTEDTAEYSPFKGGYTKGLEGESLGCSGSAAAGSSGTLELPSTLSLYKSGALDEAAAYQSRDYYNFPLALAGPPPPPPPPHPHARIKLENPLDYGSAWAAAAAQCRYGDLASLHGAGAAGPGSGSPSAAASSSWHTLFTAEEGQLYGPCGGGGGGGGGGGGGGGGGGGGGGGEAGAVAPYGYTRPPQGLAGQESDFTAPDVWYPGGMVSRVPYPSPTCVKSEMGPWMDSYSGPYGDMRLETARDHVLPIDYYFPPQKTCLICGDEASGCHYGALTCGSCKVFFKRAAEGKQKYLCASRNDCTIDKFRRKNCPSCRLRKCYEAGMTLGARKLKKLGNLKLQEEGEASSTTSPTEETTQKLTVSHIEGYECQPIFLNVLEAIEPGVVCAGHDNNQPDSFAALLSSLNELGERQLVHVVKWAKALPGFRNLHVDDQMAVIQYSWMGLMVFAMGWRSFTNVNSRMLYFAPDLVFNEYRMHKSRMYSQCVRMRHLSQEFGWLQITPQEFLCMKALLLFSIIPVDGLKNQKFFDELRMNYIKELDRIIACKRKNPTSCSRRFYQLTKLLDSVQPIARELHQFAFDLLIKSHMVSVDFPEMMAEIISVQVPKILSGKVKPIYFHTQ
Format: cell-based
Procedure: LNCaP cells expressing ARR2PB-FireflyLuc and CMV-RenillaLuc were treated with indicated concentrations of test compounds, enzalutamide (negative control), or DHT (positive control)+/−0.5 nM DHT for 48 h at 37° C. […] Remaining activity (antagonist mode) was calculated as % Remaining Activity=100×[(Readsample−LCave)/(HCave−LCave)] where HC is cells treated with 0.5 nM DHT only and LC is cells treated with 10 uM enzalutamide+0.5 nM DHT. Activation (agonist mode) was calculated as % Activation=100×[(ReadSample−LCave)/(HCave−LCave)] where HC is cells treated with 1 uM DHT and LC is cells treated with DMSO. Dose response curves and IC50 values were calculated using non-linear regression analysis in XLfit.
The designation “A” indicates an IC50 value of >10 μM, “B” indicates an IC50 value between 1 μM and 10 μM; “C” indicates an IC50 value between 100 nM and 1 μM; and “D” indicates an IC50 value of less than 100 nM.

Structure (SMILES) | pIC50
Fc1ccc(-c2n[nH]c3ncccc23)nc1 [Compound 116] | 5.00 to 6.00
FC(F)(F)c1ccc(-c2c[nH]c3ccccc23)nc1 [Compound 118] | 6.00 to 7.00
Fc1ccc(-c2c[nH]c3ccccc23)nc1 [Compound 119] | 6.00 to 7.00
N#Cc1cccc2c(-c3ccc4ccc(F)cc4n3)c[nH]c12 [Compound 120] | > 7.00
N#Cc1cccc2c(-c3ccc4c(n3)CCCN4)c[nH]c12 [Compound 121] | > 7.00
CC1(C)NC(=O)c2ccc(-c3c[nH]c4cc(F)c(F)cc34)nc21 [Compound 122] | 6.00 to 7.00
CCOC(=O)c1coc(-c2c[nH]c3c(C)cccc23)n1 [Compound 123] | < 5.00
Cc1nc(-c2c[nH]c3cc(F)c(F)cc23)ccc1N [Compound 124] | 5.00 to 6.00
Cc1nc(-c2c[nH]c3c(C#N)cccc23)ccc1N [Compound 125] | 6.00 to 7.00
Fc1ccc(-c2c[nH]c3ncccc23)nc1 [Compound 126] | 6.00 to 7.00
N#Cc1cccc2c(-c3ccc(F)cn3)c[nH]c12 [Compound 127] | > 7.00
c1cnc2[nH]cc(-c3ccc(C4CC4)cn3)c2c1 [Compound 128] | 6.00 to 7.00
c1cnc2[nH]cc(-c3ccc(C4COC4)cn3)c2c1 [Compound 129] | 5.00 to 6.00
Cc1nc(-c2c[nH]c3c(C#N)cc(F)cc23)ccc1N [Compound 130] | 6.00 to 7.00
Cc1nc(-c2c[nH]c3c(C#N)cc(F)cc23)ccc1F [Compound 131] | > 7.00
N#Cc1cccc2c(-c3ccc(N)cn3)c[nH]c12 [Compound 132] | 5.00 to 6.00
Cc1cccc(-c2c[nH]c3c(C#N)cccc23)n1 [Compound 133] | 6.00 to 7.00
Cc1nc(-c2c[nH]c3cccnc23)ccc1N [Compound 134] | < 5.00
Cc1nc(-c2c[nH]c3ncccc23)ccc1N [Compound 135] | 5.00 to 6.00
CC1NC(=O)c2ccc(-c3c[nH]c4cc(F)c(F)cc34)nc21 (stereo not shown) [Compound 136] | 6.00 to 7.00
N#Cc1cccc2c(-c3ccc(N)c(Cl)n3)c[nH]c12 [Compound 137] | 6.00 to 7.00
Cc1cc(-c2c[nH]c3c(C#N)cccc23)ncc1N [Compound 138] | 5.00 to 6.00
N#Cc1cccc2c(-c3ccc(N)c(C4CC4)n3)c[nH]c12 [Compound 139] | > 7.00
Cc1nc(-c2c[nH]c3c(C)cccc23)ccc1N [Compound 140] | 5.00 to 6.00
Cc1nc(-c2c[nH]c3c(F)cccc23)ccc1N [Compound 141] | 5.00 to 6.00

Structure (SMILES) | pIC50
Cc1nc(-c2c[nH]c3c(C4CC4)cccc23)ccc1N [Compound 142] | 5.00 to 6.00
CC1(C)NC(=O)c2ccc(-c3c[nH]c4cc(F)c(F)cc34)cc21 [Compound 143] | 5.00 to 6.00
Cc1nc(-c2c[nH]c3c(-c4nnco4)cccc23)ccc1N [Compound 144] | < 5.00
CNC(=O)c1cccc2c(-c3ccc(N)c(C)n3)c[nH]c12 [Compound 145] | < 5.00
CNc1ccc(-c2c[nH]c3c(C#N)cccc23)nc1C [Compound 146] | > 7.00
CCNc1ccc(-c2c[nH]c3c(C#N)cccc23)nc1C [Compound 147] | 6.00 to 7.00
Cc1nc(-c2c[nH]c3c(C#N)cccc23)ccc1N(C)C [Compound 148] | > 7.00
Cc1nc(-c2c[nH]c3c(C#N)cccc23)cnc1N [Compound 149] | 6.00 to 7.00
Cc1ccc2c(-c3ccc(N)c(C)n3)c[nH]c2c1C#N [Compound 150] | 5.00 to 6.00
Cc1nc(-c2c[nH]c3c(C#N)c(Cl)ccc23)ccc1N [Compound 151] | 6.00 to 7.00
Cc1cc(C#N)c2[nH]cc(-c3ccc(N)c(C)n3)c2c1 [Compound 152] | 5.00 to 6.00
Cc1nc(-c2c[nH]c3c(C#N)cc(Cl)cc23)ccc1N [Compound 153] | 5.00 to 6.00
NCc1cc(F)cc2c(-c3ccc4ncccc4n3)c[nH]c12 [Compound 154] | 6.00 to 7.00
Cc1nc(-c2c(C)[nH]c3c(C#N)cccc23)ccc1N [Compound 155] | < 5.00
CN1C(=O)c2ccc(-c3c[nH]c4c(C#N)cccc34)nc2C1(C)C [Compound 156] | 6.00 to 7.00
COCCN1C(=O)c2ccc(-c3c[nH]c4c(C#N)cccc34)nc2C1(C)C [Compound 157] | < 5.00
CC1(C)c2nc(-c3c[nH]c4c(C#N)cccc34)ccc2C(=O)N1C1CCOC1 (stereo not shown) [Compound 158] | < 5.00
Cc1nc(-c2c[nH]c3c(C(F)(F)F)cccc23)ccc1N [Compound 159] | 6.00 to 7.00
CC(=O)c1cccc2c(-c3ccc(N)c(C)n3)c[nH]c12 [Compound 160] | < 5.00
Cc1cccc(-c2c[nH]c3cc(C#N)ccc23)n1 [Compound 161] | 5.00 to 6.00
Cc1cccc(-c2c[nH]c3ccc(C#N)cc23)n1 [Compound 162] | 5.00 to 6.00
COCCNc1ccc(-c2c[nH]c3c(C#N)cccc23)nc1C [Compound 163] | 6.00 to 7.00
Cc1nc(-c2c[nH]c3c(C#N)cccc23)ccc1NC1CCOC1 (stereo not shown) [Compound 164] | 6.00 to 7.00
COCCOc1ccc(-c2c[nH]c3c(C#N)cccc23)nc1C [Compound 165] | 6.00 to 7.00
COc1ccc(-c2c[nH]c3c(C#N)cccc23)nc1C [Compound 166] | > 7.00

Structure (SMILES) | pIC50
COCCOc1cccc(-c2c[nH]c3c(C#N)cccc23)n1 [Compound 167] | 5.00 to 6.00
N#Cc1cccc2c(-c3cccc(OC4CCNC4)n3)c[nH]c12 (stereo not shown) [Compound 168] | < 5.00
COCCOc1nc(-c2c[nH]c3c(C#N)cccc23)ccc1N [Compound 170] | 6.00 to 7.00
N#Cc1cccc2c(-c3cnc(OC(F)F)c(N)c3)c[nH]c12 [Compound 171] | > 7.00
N#Cc1cccc2c(-c3cnc(N)c(OC(F)F)n3)c[nH]c12 [Compound 172] | > 7.00
CN1C(=O)c2ccc(-c3c[nH]c4c(C#N)cccc34)nc2C1(C)CO (stereo not shown) [Compound 173] | 5.00 to 6.00
N#Cc1cccc2c(-c3cnccn3)c[nH]c12 [Compound 174] | 5.00 to 6.00
Cc1cncc(-c2c[nH]c3c(C#N)cccc23)n1 [Compound 175] | 6.00 to 7.00
N#Cc1cccc2c(-c3ccccn3)c[nH]c12 [Compound 176] | 6.00 to 7.00
COCCN(C)c1cncc(-c2c[nH]c3c(C#N)cccc23)n1 [Compound 177] | 6.00 to 7.00
N#Cc1cccc2c(-c3cccc(N4CCC4)n3)c[nH]c12 [Compound 178] | 6.00 to 7.00
Cc1nc2ccc(-c3c[nH]c4c(C#N)cccc34)cc2s1 [Compound 179] | 6.00 to 7.00
N#Cc1cccc2c(-c3ccc4nc(N)sc4c3)c[nH]c12 [Compound 180] | 5.00 to 6.00
Cc1nc(-c2c[nH]c3c(C#N)cccc23)cnc1NC1CCNC1 (stereo not shown) [Compound 181] | 6.00 to 7.00
Cc1nc(-c2c[nH]c3c(C#N)cccc23)cnc1NC1CCN(C)C1 (stereo not shown) [Compound 182] | 6.00 to 7.00
Cc1nc(-c2c[nH]c3c(C#N)cccc23)cnc1OC1CCNC1 (stereo not shown) [Compound 183] | 6.00 to 7.00
CC1(C)NC(=O)c2ccc(-c3c[nH]c4c(C#N)c(F)ccc34)nc21 [Compound 184] | 6.00 to 7.00
CC1(C)NC(=O)c2ccc(-c3c[nH]c4c(C#N)c(Cl)ccc34)nc21 [Compound 185] | 5.00 to 6.00
Cc1nc(-c2c[nH]c3c(C(F)(F)F)cccc23)cnc1N [Compound 186] | 6.00 to 7.00
CC1(C)NC(=O)c2ccc(-c3c[nH]c4c(C(F)(F)F)cccc34)nc21 [Compound 187] | > 7.00
CN1C(=O)c2ccc(-c3c[nH]c4c(C(F)(F)F)cccc34)nc2C1(C)C [Compound 188] | 6.00 to 7.00
Cc1nc(-c2c[nH]c3c(C#N)cccc23)ccc1NCCO [Compound 190] | 6.00 to 7.00
Cc1nc(-c2c[nH]c3c(C#N)cccc23)ccc1NC(C)C(=O)N(C)C (stereo not shown) [Compound 191] | 5.00 to 6.00
N#Cc1cccc2c(-c3ccc(N)c(OC(F)F)n3)c[nH]c12 [Compound 192] | 6.00 to 7.00
Cc1nc(-c2c[nH]c3c(C#N)cccc23)cnc1OC1CCN(C)C1 (stereo not shown) [Compound 193] | 5.00 to 6.00

Same assay, conditions: IC50 (μM), 48 h at 37° C., class symbols A-D

Structure (SMILES) | IC50 [µM]
c1ccc2nc(-c3n[nH]c4ccccc34)ccc2c1 [Compound 117] | 0.1 to 1
